The assay addresses T1, recombinant c-Myc/Max (Homo sapiens, UniProt P01106+P61244).
T1 construct: made in house
The assay can be described thus: Electrophoretic mobility shift assay (EMSA): inhibitory activity on DNA binding of recombinant c-Myc/Max. To be noted: read-out: protein assay IC50. The protocol: 1) Preparation of Recombinant c-Myc and Max Proteins
Recombinant proteins were prepared as described in the following references: K. C. Jung et al., Fatty Acids, Inhibitors for the DNA Binding of c-Myc/Max Dimer, Suppress Proliferation and Induce Apoptosis of Differentiated HL-60 Human Leukemia Cell, Leukemia, 2006, 20(1), 122-7 or Kyung-Chae Jeong et al., Small-Molecule Inhibitors of c-Myc Transcriptional Factor Suppress Proliferation and Induce Apoptosis of Promyelocytic Leukemia Cell via Cell Cycle Arrest, Mol. BioSyst., 2010, 6, 1503-1509.
2) Electrophoretic Mobility Shift Assay (EMSA)
The inhibitory activity of each candidate compound on DNA binding of recombinant c-Myc/Max was measured using an electrophoretic mobility shift assay (EMSA). The ratio of protein-DNA complexes in each sample was evaluated by measuring band intensity. The oligonucleotides (E-box) corresponding to the consensus binding site of Myc/Max were dimerized through an annealing process. The protein mixture was incubated at room temperature for 5 minutes, and a DMSO solution containing each candidate compound was added thereto. The mixture was further incubated for 5 minutes, and the biotinylated DNA was added. To achieve a state of equilibrium, the final mixture was incubated at room temperature for 10 minutes. The protein-DNA complexes were separated from unbound free DNA by pre-electrophoresis using 8% polyacrylamide gel and 1×TBE buffer. After pre-electrophoresis, electrophoresis was performed at 120 V for 1 hour in 1×TBE buffer. Each band was visualized using HRP-conjugated streptavidin and an ECL solution, and band intensity was measured using image analysis software.
(Mobility shift assays separate free from complexed probe on a gel.)
T1 sequence (P01106 whole entry): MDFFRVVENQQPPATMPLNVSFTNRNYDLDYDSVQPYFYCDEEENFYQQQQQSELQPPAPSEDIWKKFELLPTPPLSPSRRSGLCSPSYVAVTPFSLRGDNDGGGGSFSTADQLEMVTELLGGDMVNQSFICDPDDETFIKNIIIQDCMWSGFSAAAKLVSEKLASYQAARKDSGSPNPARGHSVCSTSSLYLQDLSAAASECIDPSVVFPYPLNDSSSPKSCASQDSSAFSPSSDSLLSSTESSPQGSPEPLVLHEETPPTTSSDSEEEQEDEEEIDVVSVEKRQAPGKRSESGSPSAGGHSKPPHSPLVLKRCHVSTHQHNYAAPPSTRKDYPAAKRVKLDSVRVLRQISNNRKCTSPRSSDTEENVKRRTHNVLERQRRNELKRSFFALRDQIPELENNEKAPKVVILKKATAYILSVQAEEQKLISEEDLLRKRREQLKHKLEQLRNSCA
T1 sequence (P61244 whole entry): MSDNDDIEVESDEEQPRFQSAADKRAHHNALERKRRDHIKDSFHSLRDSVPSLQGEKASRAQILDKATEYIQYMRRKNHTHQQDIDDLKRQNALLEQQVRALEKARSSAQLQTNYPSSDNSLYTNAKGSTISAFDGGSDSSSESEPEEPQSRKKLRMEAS
Take `CSc1c(C(C)=O)c(=O)c2c(Cl)ccc(Br)c2n1S(C)(=O)=O` [Compound 35, 3-acetyl-8-bromo-5-chloro-1-(methylsulfonyl)-2-(methylthio)quinolin-4(1H)-one]: the IC50 – broadly, the concentration needed to halve the response being measured – was under 1 µM.
`COC(=O)c1ccc(C[S+]([O-])c2[nH]c3c(Cl)ccc(Cl)c3c(=O)c2C(C)=O)o1` (centres unmarked) [Compound 89, methyl 5-(((3-acetyl-5,8-dichloro-4-oxo-1,4-dihydroquinolin-2-yl)sulfinyl)methyl)furan-2-carboxylate]: the IC50 is under 1 µM.
As for `CC(=O)c1c([S+]([O-])Cc2cccc(C#N)c2)[nH]c2c(Br)ccc(Cl)c2c1=O` (centres unmarked) [Compound 28, 3-(((3-acetyl-8-bromo-5-chloro-4-oxo-1,4-dihydroquinolin-2-yl)sulfinyl)methyl)benzonitrile], the figure is under 1 µM.
As for `CC(=O)c1c([S+](C)[O-])n(S(=O)(=O)C(F)(F)F)c2c(Br)ccc(Cl)c2c1=O` (centres unmarked) [Compound 36, 3-acetyl-8-bromo-5-chloro-2-(methylsulfinyl)-1-((trifluoromethyl)sulfonyl)quinolin-4(1H)-one], the IC50 is under 1 µM.
On to `CC(=O)c1c([S+]([O-])Cc2ccc(C(F)(F)F)o2)[nH]c2c(Br)ccc(Cl)c2c1=O` (centres unmarked) [Compound 72, 3-acetyl-8-bromo-5-chloro-2-(((5-(trifluoromethyl)furan-2-yl)methyl)sulfinyl)quinolin-4(1H)-one], for which the IC50 was under 1 µM.
The value for `CC(=O)c1c([S+]([O-])CN2C(=O)c3ccccc3C2=O)[nH]c2c(Cl)ccc(Cl)c2c1=O` (centres unmarked) [Compound 90, 2-(((3-acetyl-5,8-dichloro-4-oxo-1,4-dihydroquinolin-2-yl)sulfinyl)methyl)isoindoline-1,3-dione] was under 1 µM; that for `CC(=O)c1c([S+]([O-])Cc2cccc(S(F)(F)(F)(F)F)c2)[nH]c2c(Br)ccc(Cl)c2c1=O` (centres unmarked) [Compound 77, 3-acetyl-8-bromo-5-chloro-2-((3-(pentafluoro-λ6-sulfanyl)benzyl)sulfinyl)quinolin-4(1H)-one] was under 1 µM; that for `CC(=O)c1c([S+]([O-])Cc2cnc3[nH]ccc3c2)[nH]c2c(Br)ccc(Cl)c2c1=O` (centres unmarked) [Compound 107, 2-(((1H-pyrrolo[2,3-b]pyridin-5-yl)methyl)sulfinyl)-3-acetyl-8-bromo-5-chloroquinolin-4(1H)-one] was under 1 µM.
The value for `CC(=O)c1c([S+]([O-])Cc2c(F)cccc2Cl)[nH]c2c(Br)ccc(Cl)c2c1=O` (centres unmarked) [Compound 74, 3-acetyl-8-bromo-5-chloro-2-((2-chloro-6-fluorobenzyl)sulfinyl)quinolin-4(1H)-one] was under 1 µM.
The value for `CC(=O)c1c([S+]([O-])Cc2ccc(-n3cccn3)nc2)[nH]c2c(Br)ccc(Cl)c2c1=O` (centres unmarked) [Compound 99, 2-(((6-(1H-pyrazol-1-yl)pyridin-3-yl)methyl)sulfinyl)-3-acetyl-8-bromo-5-chloroquinolin-4(1H)-one] was under 1 µM; that for `CC(=O)c1c([S+]([O-])Cc2ccc(NS(C)(=O)=O)cc2)[nH]c2c(Br)ccc(Cl)c2c1=O` (centres unmarked) [Compound 103, N-(4-(((3-acetyl-8-bromo-5-chloro-4-oxo-1,4-dihydroquinolin-2-yl)sulfinyl)methyl)phenyl)methanesulfonamide] was under 1 µM; that for `CC(=O)c1c([S+]([O-])Cc2ccc([N+](=O)[O-])cc2)[nH]c2c(Cl)ccc(Cl)c2c1=O` (centres unmarked) [Compound 57, 3-acetyl-5,8-dichloro-2-((4-nitrobenzyl)sulfinyl)quinolin-4(1H)-one] was under 1 µM.
As to `CC(=O)c1c([S+]([O-])c2ccc(Br)cc2)[nH]c2c(Br)ccc(Cl)c2c1=O` (centres unmarked) [Compound 17, 3-acetyl-8-bromo-2-((4-bromophenyl)sulfinyl)-5-chloroquinolin-4(1H)-one], the IC50 was under 1 µM.
For `CC(=O)c1c([S+](C)[O-])[nH]c2c(Cl)ccc(Cl)c2c1=O` (centres unmarked) [Compound 6, 3-acetyl-5,8-dichloro-2-(methylsulfinyl)quinolin-4(1H)-one], the IC50 was under 1 µM.
